The values below are quoted from earlier work in US20220296868A1, “INTRACRANIAL DELIVERY OF MEDICINAL SOLUTION” (InCube Labs, LLC, priority 2019, published 2022).

The conditions of data set [1]: hydrochloride salt of topotecan.
In a further data set the test system is white blood cell count. To be noted: in vivo.
Assay in data set [2]: not given
This is another data set of the same source.

For data set [3] the following is noted: in vitro, human liver microsomes. On the technique in general: Liver microsomes are a subcellular fraction often used to study metabolism.

For the molecule `CC[C@@]1(O)C(=O)OCc2c1cc1n(c2=O)Cc2cc3c(CN(C)C)c(O)ccc3nc2-1` [topotecan], the “binding to plasma proteins” value in the data set on plasma proteins is “about 35%”. Further, for the setting “pH≤4”, the lactone form entry is given as “exclusively present”. Also, the ring-opened hydroxy-acid form entry (physiologic pH) is “predominates”. In addition, the solubility in water entry in data set [1] is on record as “freely soluble”. Also, the dose-limiting toxicity entry in the data set with white blood cell count is “leukopenia”. Also, in data set [2] (N-demethylated metabolite, total topotecan and topotecan lactone, following IV administration), the “mean metabolite:parent AUC ratio” value is “about 3%”. For the same molecule, in data set [2] (cancer subjects, 0.5 to 1.5 mg/m^2 as 30-minute IV infusion), the “total exposure (AUC) versus dose” value was “approximately dose-proportional”. Moreover, the metabolism result in data set [3] is “metabolized to an Ndemethylated metabolite”.
